What all share (format): cell-based
Assay [1] concerns Klebsiella aerogenes O-G KAl. Description: in vitro M.I.C. test against Klebsiella aerogenes O-G KAl. As to conditions: read-out: M.I.C. (minimum inhibitory concentration). The source says:
(§1) The following Table illustrates the minimum inhibitory concentration (M.I.C.) in μg/ml of a representative peptide derivative provided by this invention, namely (1R)-1-(L-3-fluoroalanylamino)-ethylphosphonic acid, in an in vitro test against various organisms.

The subject of assay [2] is Escherichia coli NCTC 10418 P.S. Description: in vitro M.I.C. test against Escherichia coli NCTC 10418 P.S. The conditions noted are these: NCTC10418, read-out: M.I.C. (minimum inhibitory concentration).
From the text: as §1

Assay [3] has as its system Klebsiella aerogenes Type 33 Ba. The experiment in a line: in vitro M.I.C. test against Klebsiella aerogenes Type 33 Ba. The conditions noted are these: TYPE33BA, read-out: M.I.C. (minimum inhibitory concentration).
From the text: as §1

Assay [4] deals with Haemophilus influenzae NCTC 4560. The experiment in a line: in vitro M.I.C. test against Haemophilus influenzae NCTC 4560. The conditions noted are these: NCTC4560, read-out: M.I.C. (minimum inhibitory concentration).
From the text: as §1

The subject of assay [5] is Escherichia coli C.1.5 P.R. The experiment in a line: in vitro M.I.C. test against Escherichia coli C.1.5 P.R. The conditions noted are these: read-out: M.I.C. (minimum inhibitory concentration).
From the text: as §1

In assay [6] the test system is Escherichia coli NCIB 8879 P.S. The experiment in a line: in vitro M.I.C. test against Escherichia coli NCIB 8879 P.S. As to conditions: NCIB8879, read-out: M.I.C. (minimum inhibitory concentration).
From the text: as §1

≈ marks a conversion by molar mass, not a printed value.

As to `C[C@H](NC(=O)[C@@H](N)CF)P(=O)(O)O` [(1R)-1-(L-3-fluoroalanylamino)-ethylphosphonic acid], the MIC was 4 mg/L (≈ 18.7 µM) in assay [1]; 0.25 mg/L (≈ 1.17 µM) in assay [2]; 1 mg/L (≈ 4.67 µM) in assay [3]; 8 mg/L (≈ 37.4 µM) in assay [4]; 4 mg/L (≈ 18.7 µM) in assay [5]; 0.5 mg/L (≈ 2.33 µM) in assay [6].

These data come from patent US4143134A, “Halo-phosphonopeptides” (Hoffmann-La Roche Inc., priority 1976, dated 1979).
